pIC50, pKd, pKi: −log10 of the molar value. Peptide text beside a SMILES is read from it.
Columns and labels:
OX40R-IgG1 = biological target: T1, OX40R-IgG1 (Homo sapiens, UniProt P43489); test: Fluorescence quenching assay of OX40R-IgG1; type: binding
T1 construct: extracellular portion of human OX40R (amino acids 1-208 of SWISSPROT Acc. No P43489); human IgG1 constant region (hinge, CH2 and CH3); made in house; purified from the supernatant on protein G
T1 sequence (P43489 29-208): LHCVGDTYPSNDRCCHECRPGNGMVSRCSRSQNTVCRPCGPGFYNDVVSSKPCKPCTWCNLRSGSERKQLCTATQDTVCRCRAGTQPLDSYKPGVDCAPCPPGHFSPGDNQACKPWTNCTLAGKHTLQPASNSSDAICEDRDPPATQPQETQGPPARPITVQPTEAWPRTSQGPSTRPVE
Description: The fluorescence quenching assay was performed as previously described (Golabek A et al., 2000). OX40R-IgG1 (35 micrograms) was dissolved in 500 microliters of PBS and the fluorescence spectum was recorded at 295-420 nanometers with an excitation wavelength of 290 nanometers using a spectrofluorimeter (Perkin Elmer LS50B) with the slits set at 5 nanometers. Fluorescence spectra of human OX40R-IgG1 were then recorded in the presence of increasing concentrations (5-1000 nM) of P5 and P5-1 peptides after 15 minutes of equilibration. The fluorescence change at 336 nanometers was plotted versus peptide concentration and the resulting curves were analyzed by nonlinear regression fit with Prism® software (GraphPad).
The affinity of the peptides identified in Example 1 as inhibitor of OX40L-OX40R interaction was evaluated by fluorescence quenching spectroscopy, a technology allowing such measurements in solution, under native conditions and without beads or other supports. This method is based on monitoring the changes in the intrinsic fluorescence of a protein (OX40R-IgG1) upon its binding with another protein (P5 or P5-1). […]

[1] = biological target: T2, OX40L-OX40R interaction (OX40R-IgG1 / OX40L-CD8) (Homo sapiens, UniProt P43489); test: Alphascreen-based competition assay (displacement of OX40L-CD8 from OX40R-IgG1); type: binding; settings: for inhibition of binding of OX40R to OX40L (in words): Alphascreen-based competition assay
T2 sequence (P43489 29-208): T1 sequence (P43489 29-208)
Description: Alphascreen™ modified acceptor and donor beads were purchased (Biosignal Packard). OX40R-IgG1 and OX40L-CD8 fusion proteins were immobilized, respectively, onto protein A-conjugated acceptor beads and, by the means of a biotinylated anti-CD8 antibody, onto streptavidin-conjugated donor beads.
The binding assay was performed using Costar® 384-well white polystyrene plates (Corning). Each well of a 384-well plate contained a reaction mix having a volume of 25 microliters. Each of the five components of the reaction mix (OX40R-IgG1, OX40L-CD8, biotinylated anti-CD8, streptavidin-conjugated donor beads, and Protein A-conjugated acceptor beads) was added in a volume of 5 microliters. All dilutions were made in assay buffer (Phosphate Buffer Saline and 0.1% BSA), with or without dimethyl sulfoxide (DMSO).
In the standard assay, OX40-IgG1 and OX40L-CD8 were incubated together for 30 minutes, and then biotinylated anti-CD8 antibody (10 nM) was added. Following another incubation period of 30 minutes, streptavidin donor beads (20 μg/ml) and Protein A acceptor beads (20 μg/ml) were added to each individual well. The plate was counted 1 hour later using a Packard Fusion™ reader (Biosignal Packard) set at a read time of 1 second/well. Owing to the light sensitivity of the donor and acceptor beads, the experiments were carried out under blue light and all incubation periods were performed at room temperature. The plate was read at an excitation wavelength of 680 nanometers combined with a shorter emission wavelength of 520-620 nanometers.
All KD, IC50 and EC50 values were calculated using Prism® software (Graphpad Software). The transformation of IC50 values into Ki values was performed using the Cheng-Prusoff equation (Cheng Y C and Prusoff W H, 1973).
The ability of two known competitors of OX40L-OX40R interactions (untagged recombinant human soluble OX40L and suramin), which are themselves unable to generate an Alphascreen™ signal in this assay in absence of OX40L-CD8, to displace OX40L-CD8 from OX40R-IgG1 was investigated. The displacement experiments were performed, taking into consideration the approximate KD value, with a concentration of OX40L-CD8 (40 nM) that was 4 times greater than that of the OX40R-IgG1 (10 nM). Increasing concentrations of OX40L (3 μM-0.1 pM) or suramin (1 mM[…]1 nM) were added to a reaction mixture also containing OX40-IgG1 (10 nM) and OX40L-CD8 (40 nM). […] This latter value for suramin is similar to reported values for inhibition of TNF-α binding to the TNF receptor (Gray P W et al., 1990).
The soluble components (OX40-IgG1, OX40L-CD8 and biotinylated anti-CD8 antibody) were mixed at the concentration described before for the competition assays with OX40L and suramin (FIG. 4), together with various concentrations of each peptide in a 5 microliter volume into a first addition step. The streptavidin donor and Protein A acceptor beads were added 30 minutes later. The plates were incubated for 2 hours in the dark, at room temperature and with shaking, before reading at a long excitation wavelength of 680 nm combined with a shorter emission wavelength of 520-620 nanometers, as described in Example 1.

OX40R = biological target: T3, OX40R (Homo sapiens, UniProt P43489); settings: literature value; read-out: Kd of OX40L (homotrimer) for OX40R; cited from earlier work
T3 sequence (P43489 29-277): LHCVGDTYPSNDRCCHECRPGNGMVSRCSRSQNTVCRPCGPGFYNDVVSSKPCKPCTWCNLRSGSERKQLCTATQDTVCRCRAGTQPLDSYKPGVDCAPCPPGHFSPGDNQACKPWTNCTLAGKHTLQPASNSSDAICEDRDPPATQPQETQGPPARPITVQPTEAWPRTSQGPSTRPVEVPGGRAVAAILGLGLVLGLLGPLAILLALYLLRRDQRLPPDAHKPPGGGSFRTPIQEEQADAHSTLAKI

## CC[C@H](C)[C@H](NC(=O)[C@H](CC(N)=O)NC(=O)[C@@H](NC(=O)[C@H](CCC(=O)O)NC(=O)[C@H](CCC(N)=O)NC(=O)[C@H](CO)NC(=O)[C@H](Cc1ccccc1)NC(=O)[C@H](Cc1ccc(O)cc1)NC(=O)CN)C(C)C)C(=O)N[C@@H](CO)C(=O)O [P5-1, GYFSQEVNIS] (H-GYFSQEVNIS-OH; N-terminus and C-terminus assumed)
OX40R-IgG1
  pKd: ~7.61

## CC[C@H](C)[C@H](N)C(=O)N[C@H](C(=O)N[C@@H](CC(N)=O)C(=O)N[C@@H](CS)C(=O)N[C@@H](CC(=O)O)C(=O)NCC(=O)N[C@@H](Cc1ccccc1)C(=O)N[C@@H](Cc1ccc(O)cc1)C(=O)N[C@@H](CC(C)C)C(=O)N[C@H](C(=O)N[C@@H](CO)C(=O)N[C@@H](CC(C)C)C(=O)N[C@@H](CCCCN)C(=O)NCC(=O)N[C@@H](Cc1ccc(O)cc1)C(=O)N[C@@H](Cc1ccccc1)C(=O)N[C@@H](CO)C(=O)N[C@@H](CCC(N)=O)C(=O)N[C@@H](CCC(=O)O)C(=O)N[C@H](C(=O)N[C@@H](CC(N)=O)C(=O)N[C@H](C(=O)N[C@@H](CO)C(=O)N[C@@H](CC(C)C)C(=O)N[C@@H](Cc1c[nH]cn1)C(=O)N[C@@H](Cc1ccc(O)cc1)C(=O)N[C@@H](CCC(N)=O)C(=O)N[C@@H](CCCCN)C(=O)N[C@@H](CC(=O)O)C(=O)N[C@@H](CCC(=O)O)C(=O)N[C@@H](CCC(=O)O)C(=O)O)[C@@H](C)CC)C(C)C)[C@@H](C)CC)[C@@H](C)CC [P5] (H-IINCDGFYLISLKGYFSQEVNISLHYQKDEE-OH; N-terminus and C-terminus assumed)
[1]
  inhibition of binding of OX40R to OX40L (in words): micromolar range

## Cc1ccc(C(=O)Nc2ccc(S(=O)(=O)O)c3cc(S(=O)(=O)O)cc(S(=O)(=O)O)c23)cc1NC(=O)c1cccc(NC(=O)Nc2cccc(C(=O)Nc3cc(C(=O)Nc4ccc(S(=O)(=O)O)c5cc(S(=O)(=O)O)cc(S(=O)(=O)O)c45)ccc3C)c2)c1 [suramin, Suramin, reference compound]
[1]; OX40-IgG1 10 nM, OX40L-CD8 40 nM, read-out: IC50 for competition of OX40L-CD8 binding
  pIC50: 4.10
[1]; OX40-IgG1 10 nM, OX40L-CD8 40 nM, read-out: Ki (Cheng-Prusoff from IC50)
  pKi: 4.58

## EKGFILTSQKEDEIMKVQNNSVIINCDGFYL (human OX40R binding peptides) [P4, peptide corresponding to amino acids 72-102 of human OX40L]
[1]
  inhibition of binding of OX40R to OX40L (in words): bind OX40R very poorly

## OX40L: recombinant human soluble OX40L, extracellular portion, prepared as GST fusion in baculovirus system; b9 value is for natural homotrimer
[1]; OX40-IgG1 10 nM, OX40L-CD8 40 nM
  -log IC50±SEM: 8.23±0.35
OX40R
  pKd: 9.40 to 9.70

— US7858765B2, “OX40R binding agents” (Merck Serono SA, priority 2002, dated 2010)
